Data taken from US12637414B2, “Arylamides and methods of use thereof” (Genzyme Corporation, priority 2019, dated 2026).

Molecular target: T1, human Cystic Fibrosis Transmembrane Conductance Regulator (CFTR) harboring the ΔF508 mutation (Homo sapiens, UniProt P13569, DEL508-508)
T1 construct: expressed in transfected cells; host or cells: H441 carcinoma line (G418 selection)
Test: H441 cell Emax and EC50: HRP-tagged ΔF508-CFTR cell surface luminescence assay
Type: cell-based
Details: H441 cells expressing ΔF508-CFTR-HRP, 27° C., two nights; for EC50: 15-point dose-response, top 24.5 μM; for Emax: NCI-H441, % of maximum VX809 signal
Excerpt: Two cell lines were used, the H441 carcinoma line and the CFHBE41o-(41o-) human bronchial epithelial line. Both cell lines expressed human Cystic Fibrosis Transmembrane Conductance Regulator (CFTR) harboring the ΔF508 mutation and with an in-frame fusion in CFTR extracellular loop 4 of Horse Radish Peroxidase (HRP) under control of the CMV promoter. In the presence of the HRP tag, ΔF508-CFTR transported to the cell surface was detectable upon addition of an HRP substrate (Luminata Forte). Both cell types were cultivated at 37° C. with CO2.
For both cell types, the medium was changed every other day unless the culture was at low % confluence. Cells were used for the assays at ˜75% confluence.
To a polypropylene (PP) 384-well plate, 15 μls DMSO was added to all wells in columns 1-22 and 24 (low Control). 15 μls of 260 μM VX809 (Lumacaftor), Selleckchem S1565, was added to column 23 wells (high Control). 15 μls of 10 mM test compound or VX809 (control) were added to wells of row A. Serial dilutions of Row A compound were performed 2×15 μls in rows A through O (15-point).
A PP, 384-well plate containing the appropriate cell culture medium was prepared for each assay plate with 100 μls per well. For the doxycycline-induced 41o-cells, doxycycline for both the assay plate and the medium dilution plate was added at 0.0005 mg/ml to the medium.
Both cell lines were plated for the assay at 30 uls per 384-well at 3.4×10^e5 cells per ml (˜10K cells/well). H441 cells were plated on opaque, white, Corning plate 3704. 41o-cells were plated on collagen-coated opaque, white, Corning plate 356665. For 41o-cells, doxycycline was added to the medium.
Using FX (Beckman) protocol, 10 uls diluted compound or medium was added per well to the Assay Plate as: 2 μls DMSO Dilution plate well is diluted in 100 uls of the Medium Dilution Plate well, mixed, and 10 uls is transferred to the Assay Plate.
The final assay dilution series is 24.5, 12.3, 6.1, 3.1, 1.5, 0.8, 0.4, 0.2, 0.1, 0.05, 0.02, 0.01, 0.006, 0.003, 0.001 and 0 μM. The 41o-assay plates were incubated at 37° C. w/CO2, the H441 assay plates were incubated at 27° C. w/CO2, each overnight for two nights.
After being brought to room temperature, the assay plate liquid was removed. 30 μls of Luminata Forte (Millipore ELLUF0100) was added per well and incubated at room temperature for 10 min. The plates were then read on a Topcount, protocol LumiMatti (CPS, luminescence). The data was analyzed for % of maximum, maximum VX809 signal, and EC50 using Pearl and SPEED tools.

T1 sequence (P13569 with tags, fused parts or gaps DEL508-508): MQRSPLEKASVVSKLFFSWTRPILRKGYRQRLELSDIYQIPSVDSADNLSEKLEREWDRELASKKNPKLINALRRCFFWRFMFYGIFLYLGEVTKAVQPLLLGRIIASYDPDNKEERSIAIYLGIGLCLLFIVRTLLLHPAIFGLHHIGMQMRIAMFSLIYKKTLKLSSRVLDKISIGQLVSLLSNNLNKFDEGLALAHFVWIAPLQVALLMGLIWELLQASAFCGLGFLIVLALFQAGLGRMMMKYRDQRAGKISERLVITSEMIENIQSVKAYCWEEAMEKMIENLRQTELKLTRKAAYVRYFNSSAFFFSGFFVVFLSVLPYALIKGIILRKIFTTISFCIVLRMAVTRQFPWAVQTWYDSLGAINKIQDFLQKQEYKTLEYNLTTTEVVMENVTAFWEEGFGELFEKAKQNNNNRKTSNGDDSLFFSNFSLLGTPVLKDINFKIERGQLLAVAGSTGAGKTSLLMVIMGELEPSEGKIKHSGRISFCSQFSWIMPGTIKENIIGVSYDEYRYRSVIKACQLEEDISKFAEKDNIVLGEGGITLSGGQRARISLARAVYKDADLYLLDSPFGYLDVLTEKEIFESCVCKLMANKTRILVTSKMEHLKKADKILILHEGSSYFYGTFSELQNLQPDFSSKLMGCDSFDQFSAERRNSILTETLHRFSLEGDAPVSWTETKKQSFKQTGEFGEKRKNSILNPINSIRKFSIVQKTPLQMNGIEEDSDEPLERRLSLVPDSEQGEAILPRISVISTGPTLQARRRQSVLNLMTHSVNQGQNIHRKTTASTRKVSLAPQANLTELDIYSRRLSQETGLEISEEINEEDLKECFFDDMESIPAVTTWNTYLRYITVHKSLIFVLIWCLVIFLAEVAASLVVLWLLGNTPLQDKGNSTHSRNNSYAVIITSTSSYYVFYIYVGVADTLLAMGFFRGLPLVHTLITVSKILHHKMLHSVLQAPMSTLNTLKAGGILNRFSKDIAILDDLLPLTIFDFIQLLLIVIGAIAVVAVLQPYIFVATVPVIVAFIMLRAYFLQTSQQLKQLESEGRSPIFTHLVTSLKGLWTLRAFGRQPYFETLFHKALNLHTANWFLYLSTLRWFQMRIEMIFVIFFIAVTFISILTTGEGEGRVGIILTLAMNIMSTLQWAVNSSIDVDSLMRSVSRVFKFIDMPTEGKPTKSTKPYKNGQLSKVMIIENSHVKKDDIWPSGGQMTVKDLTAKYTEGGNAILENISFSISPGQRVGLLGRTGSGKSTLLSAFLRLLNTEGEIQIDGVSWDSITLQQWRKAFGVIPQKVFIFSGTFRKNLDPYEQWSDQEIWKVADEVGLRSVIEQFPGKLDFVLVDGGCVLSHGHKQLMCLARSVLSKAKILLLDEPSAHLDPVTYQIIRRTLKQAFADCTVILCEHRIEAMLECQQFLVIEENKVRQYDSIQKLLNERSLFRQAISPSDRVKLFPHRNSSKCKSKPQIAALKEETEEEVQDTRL

Compound	EC50	Emax
O=C(N[C@H](C(=O)O)C12CC3CC(CC(O)(C3)C1)C2)c1ccc2sccc2c1OCc1ccc(C(F)(F)F)cc1 [compound 105, (2S)-2-(3-hydroxy-1-adamantyl)-2-[[4-[[4-(trifluoromethyl)phenyl]methoxy]benzothiophene-5-carbonyl]amino]acetic acid]	3550 nM	150%
O=C(N[C@H](C(=O)O)C12CC3CC(CC(C3)C1)C2)c1ccc2sccc2c1OCc1ccc(OC(F)(F)F)cc1 [compound 111, (2S)-2-(1-adamantyl)-2-[[4-[[4-(trifluoromethoxy)phenyl]methoxy]benzothiophene-5-carbonyl]amino]acetic acid]	261 nM	165%
O=C(N[C@H](C(=O)O)C12CC3CC(CC(C3)C1)C2)c1ccc2cc(F)ccc2c1OCc1ccc(Cl)c(Cl)c1 [compound 55]	196 nM	150%
O=C(N[C@H](C(=O)O)C12CC3CC(CC(O)(C3)C1)C2)c1ccc2cc(F)ccc2c1OCc1ccc(SC(F)(F)F)cc1 [compound 4]	991 nM	55.7%
O=C(N[C@H](C(=O)O)C12CC3CC(CC(C3)C1)C2)c1ccc2occc2c1OCc1ccc(C(F)(F)F)cc1 [compound 128, (2S)-2-(1-adamantyl)-2-[[4-[[4-(trifluoromethyl)phenyl]methoxy]benzofuran-5-carbonyl]amino]acetic acid]	244 nM	133%
O=C(N[C@H](C(=O)O)C12CC3CC(CC(C3)C1)C2)c1ccc2ccccc2c1OCc1nc(C(F)(F)F)cs1 [compound 100, (2S)-2-(1-adamantyl)-2-[[1-[[4-(trifluoromethyl)thiazol-2-yl]methoxy]naphthalene-2-carbonyl]amino]acetic acid]	2880 nM	55.8%
O=C(N[C@H](C(=O)O)C12CC3CC(CC(C3)C1)C2)c1ccc2cccnc2c1OCc1ccc(OC(F)(F)F)cc1 [compound 84]	660 nM	149%
CC(C)Oc1ccc2c(OCc3ccc(C(F)(F)F)cc3)c(C(=O)N[C@H](C(=O)O)C34CC5CC(CC(C5)C3)C4)ccc2c1 [compound 103, (2S)-2-(1-adamantyl)-2-[[6-isopropoxy-1-[[4-(trifluoromethyl)phenyl]methoxy]naphthalene-2-carbonyl]amino]acetic acid]	397 nM	30.2%
C=COc1ccc2c(OCc3ccc(C(F)(F)F)cc3)c(C(=O)N[C@H](C(=O)O)C34CC5CC(CC(C5)C3)C4)ccc2c1 [compound 63]	228 nM	54.9%
O=C(N[C@H](C(=O)O)C12CC3CC(CC(O)(C3)C1)C2)c1ccc2sccc2c1OCC1CCC(F)(F)CC1 [compound 108, (2S)-2-[[4-[(4,4-difluorocyclohexyl)methoxy]benzothiophene-5-carbonyl]amino]-2-(3-hydroxy-1-adamantyl)acetic acid]	11400 nM	78.4%
O=C(O)[C@@H](N1CN(Cc2ccc(SC(F)(F)F)cc2)c2c(ccc3ccccc23)C1=O)C12CC3CC(CC(C3)C1)C2 [compound 126, (2S)-2-(1-adamantyl)-2-[4-oxo-1-[[4-(trifluoromethylsulfanyl)phenyl]methyl]-2H-benzo[h]quinazolin-3-yl]acetic acid]	477 nM	42.2%
O=C(N[C@H](C(=O)O)C12CC3CC(CC(C3)C1)C2)c1ccc2sccc2c1OCc1ccc(C(F)(F)F)cc1 [compound 112, (2S)-2-(1-adamantyl)-2-[[4-[[4-(trifluoromethyl)phenyl]methoxy]benzothiophene-5-carbonyl]amino]acetic acid]	360 nM	190%
O=C(N[C@H](C(=O)O)C12CC3CC(CC(C3)C1)C2)c1ccc2occc2c1OCc1ccc(Cl)c(Cl)c1 [compound 120, (2S)-2-(1-adamantyl)-2-[[4-[(3,4-dichlorophenyl)methoxy]benzofuran-5-carbonyl]amino]acetic acid]	265 nM	141%
O=C(N[C@H](C(=O)O)C12CC3CC(CC(C3)C1)C2)c1ccc2ccccc2c1OCc1ccc(C(F)(F)C(F)(F)F)cc1 [compound 40]	113 nM	149%
O=C(N[C@H](C(=O)O)C12CC3CC(CC(C3)C1)C2)c1ccc2occc2c1OCc1ccc(OC(F)(F)F)cc1 [compound 124, (2S)-2-(1-adamantyl)-2-[[4-[[4-(trifluoromethoxy)phenyl]methoxy]benzofuran-5-carbonyl]amino]acetic acid]	471 nM	116%
O=C(N[C@H](C(=O)O)C12CC3CC(CC(O)(C3)C1)C2)c1sc2ccccc2c1OCc1ccc(OC(F)(F)F)cc1 [compound 13]	3480 nM	87.3%

Compound	EC50	Emax
O=C(N[C@H](C(=O)O)C12CC3CC(CC(C3)C1)C2)c1ccc2ccccc2c1OC[C@H]1CC[C@H](C(F)(F)F)CC1 [compound 48]	729 nM	124%
CC(C)OC(=O)[C@@H](NC(=O)c1ccc2ccccc2c1OCc1ccc(C(F)(F)F)cc1)C12CC3CC(CC(C3)C1)C2 [compound 74]		4%
CC12CC3(C)CC(C)(C1)CC(C(NC(=O)c1ccc4ccccc4c1OCc1ccc(OC(F)(F)F)cc1)C(=O)O)(C2)C3 (centres unmarked) [compound 82]	201 nM	304%
Cc1ccc2ccc(C(=O)N[C@H](C(=O)O)C34CC5CC(CC(C5)C3)C4)c(OCc3ccc(OC(F)(F)F)cc3)c2c1 [compound 34]	489 nM	264%
CN(Cc1ccc(C(F)(F)F)cc1)c1c(CC(=O)N[C@H](C(=O)O)C23CC4CC(CC(C4)C2)C3)ccc2ccccc12 [compound 134, (2S)-2-(1-adamantyl)-2-[[2-[1-[methyl-[[4-(trifluoromethyl)phenyl]methyl]amino]-2-naphthyl]acetyl]amino]acetic acid]		-17.5%
O=C(N[C@H](C(=O)O)C12CC3CC(Cl)(CC(Cl)(C3)C1)C2)c1ccc2ccccc2c1NCc1ccc(SC(F)(F)F)cc1 [compound 130, (2S)-2-(3,5-dichloro-1-adamantyl)-2-[[1-[[4-(trifluoromethylsulfanyl)phenyl]methylamino]naphthalene-2-carbonyl]amino]acetic acid]	477 nM	60.6%
COc1ccc2c(OCc3ccc(C(F)(F)F)cc3)c(C(=O)N[C@H](C(=O)O)C34CC5CC(CC(C5)C3)C4)ccc2c1 [compound 38]	131 nM	56.2%
COC(=O)[C@@H](NC(=O)c1ccc2ccccc2c1OCc1ccc(C(F)(F)F)cc1)C12CC3CC(CC(O)(C3)C1)C2 [compound 14]	≥ 24500 nM	29.9%
O=C(N[C@H](C(=O)O)C12CC3CC(CC(C3)C1)C2)c1ccc2sccc2c1OCc1ccc(S(F)(F)(F)(F)F)cc1 [compound 114]	465 nM	119%
O=C(O)[C@@H](N1CN(Cc2ccc(SC(F)(F)F)cc2)c2c(ccc3ccccc23)C1=O)C12CC3CC(CC(O)(C3)C1)C2 [compound 121, (2S)-2-(3-hydroxy-1-adamantyl)-2-[4-oxo-1-[[4-(trifluoromethylsulfanyl)phenyl]methyl]-2H-benzo[h]quinazolin-3-yl]acetic acid]	1630 nM	56.5%
O=C(N[C@H](C(=O)O)C12CC3CC(CC(C3)C1)C2)c1ccc2ccccc2c1OCc1ccc(Cl)c(Cl)c1 [compound 89]	350 nM	204%
O=C(N[C@H](C(=O)O)C12CC3CC(CC(O)(C3)C1)C2)c1ccc2cc(F)ccc2c1OCc1ccc(C(F)(F)F)cc1 [compound 33]	755 nM	100%
O=C(N[C@H](C(=O)O)C12CC3CC(CC(C3)C1)C2)c1ccc2ccccc2c1OC[C@H]1CC[C@@H](C(F)(F)F)CC1 [compound 70]	1860 nM	97.4%
O=C(N[C@H](C(=O)O)C12CC3CC(CC(C3)C1)C2)c1sc2cc(Cl)ccc2c1OCc1ccc(C(F)(F)F)cc1 [compound 32]	396 nM	105%
CS(=O)(=O)CCOC12CC3CC(C1)CC([C@H](NC(=O)c1ccc4cc(F)ccc4c1OCc1ccc(C(F)(F)F)cc1)C(=O)O)(C3)C2 [compound 39]	2160 nM	102%
O=C(N[C@H](C(=O)O)C12CC3CC(CC(OCCF)(C3)C1)C2)c1ccc2cc(F)ccc2c1OCc1ccc(C(F)(F)F)cc1 [compound 25]	228 nM	106%
